According to publication PMC10999986, “Substrate specificity of a ketosynthase domain involved in bacillaene biosynthesis” (Beilstein Journal of Organic Chemistry, 2024):

Assays:
BaeJ-KS2 [1] = molecular target: T1, BaeJ-KS2 (Bacillus amyloliquefaciens, UniProt Q1RS73); experiment: […] NMR of protein after incubation and ultrafiltration buffer exchange; proteinase K digest; conditions: 25 °C, 30 min; labelled compound; covalent binding to active-site Cys proposed
T1 construct: excised second ketosynthase domain (KS2, module 4) of BaeJ, His-tagged, heterologously expressed, Ni-NTA purified

BaeJ-KS2 [2] = molecular target: T1, BaeJ-KS2; experiment: […] NMR of protein after incubation and ultrafiltration buffer exchange; assay type: binding; conditions: 25 °C, 30 min; labelled compound; active-site Cys replaced

T1 sequence (Q1RS73 entry or part of it): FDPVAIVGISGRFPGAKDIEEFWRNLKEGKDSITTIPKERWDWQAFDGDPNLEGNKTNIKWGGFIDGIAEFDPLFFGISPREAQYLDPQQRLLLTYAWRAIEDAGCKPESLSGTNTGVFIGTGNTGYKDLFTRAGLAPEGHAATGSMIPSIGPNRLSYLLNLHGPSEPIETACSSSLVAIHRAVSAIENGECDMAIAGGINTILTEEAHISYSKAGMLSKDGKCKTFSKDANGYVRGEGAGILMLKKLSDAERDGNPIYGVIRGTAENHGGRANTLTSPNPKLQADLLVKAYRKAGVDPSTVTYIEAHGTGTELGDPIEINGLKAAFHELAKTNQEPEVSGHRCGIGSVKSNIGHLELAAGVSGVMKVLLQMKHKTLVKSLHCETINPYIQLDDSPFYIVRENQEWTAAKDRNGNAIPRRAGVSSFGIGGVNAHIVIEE

Row | Compound | 13C NMR of protein after incubation and ultrafiltration buffer exchange; protein (BaeJ-KS2 [1]) | thioester carbonyl 13C NMR signal (BaeJ-KS2 [2])
1 | CC(=O)NCCSC(=O)CCCNC(=O)[C@H](O)CC(C)C [(R)-11] | This observation supports binding of both substrate surrogates to BaeJ-KS2 | (R)-11 is not bound to BaeJ-KS2-C222A after incubation and buffer exchange
2 | CC(=O)NCCSC(=O)CCCNC(=O)[C@@H](O)CC(C)C [(S)-11] | for both samples obtained from the incubations with (S)-11 and (R)-11 signals were detected | No signal corresponding to a thioester carbonyl group was detected in the protein preparations
